Results from US6905865B1, “Detection of a gene, vatE, encoding an acetyltransferase inactivating streptogramin” (Institut Pasteur, priority 1999, dated 2005).

How the values were obtained:
[1] = tested on: S. aureus RN4220 [pIP1801]; assay: MIC of pristinamycin IIA for S. aureus RN4220 carrying pIP1801 (vatE); type: cell-based; conditions: Staphylococcus aureus; S. aureus recipient RN4220 with pIP1801 (pOX7 carrying vatE), introduced by electroporation
Protocol: (§1) A DNA fragment of 858 nt containing vatE (nt 104 to nt 961, Accession No. AF153312) was amplified from pIP1798 and inserted between the EcoRI and SmaI sites of the shuttle vector, pOX7 (11). The resulting plasmid, pIP1801, introduced by electroporation in the S. aureus recipient, RN4220 (15), conferred resistance to pristinamycin IIA (MICs: 2 μg/ml for RN4220 [pOX7] and 8 μg/ml for RN4220 [pIP1801]).

S. aureus RN4220 [pOX7] = assay: MIC of pristinamycin IIA for S. aureus RN4220 carrying the shuttle vector pOX7; type: cell-based; conditions: Staphylococcus aureus; S. aureus recipient RN4220 with empty shuttle vector pOX7
Protocol: as §1

CC1=C\[C@@H](O)CC(=O)Cc2nc(co2)C(=O)N2CCC=C2C(=O)O[C@H](C(C)C)[C@H](C)/C=C/C(=O)NC\C=C\1 [pristinamycin IIA]
MIC [1]: 8 µg/mL | MIC (S. aureus RN4220 [pOX7]): 2 µg/mL
